Assay: Pharmacokinetics after oral capsules (sCT plus Dmt-DALDA with citric acid and lauroyl carnitine), non-enteric coated or enteric coated, in fasted beagle dogs (plasma; ELISA for sCT, HPLC-MS for Dmt-DALDA)
Type: in vivo
Conditions: for AUC / Cmax: normalized to a 1 mg dose; for Tmax / Cmax: beagle, dog, plasma, oral; for plasma peptide concentration normalized to a 1 mg dose: enteric coated capsule
Protocol: A second series of tests was carried out, as noted above, using beagle dogs. […] In the experiments represented in FIGS. 2A and 2B, size 00 […] capsules were each filled with 758 mg of a powdered blend consisting of citric acid (643 mg), lauroyl carnitine (66 mg), talc (33 mg), salmon calcitonin (sCT) (13 mg) and Dmt-DALDA (2.4 mg). Half of the capsules were coated with an enteric coating solution of L30D-55, while the remaining 50% of the capsules were not coated. Four fasted dogs were each given 1 uncoated capsule, and 2 weeks later they were each given an enteric coated capsule. After administration of each capsule, samples of blood were taken at 15 minute intervals from an indwelling catheter for up to 4 hours. The blood samples were centrifuged and the resulting plasma supernatants were stored frozen at −20° C. The plasma samples were subsequently analyzed for sCT by a direct ELISA, and for Dmt-DALDA by HPLC-mass spectrometry performed as set forth in Wan, H. and Desiderio, D., Quantitation of [DMT^1] DALDA in ovine plasma by on-line liquid chromatography/quadrapole time-of-flight mass spectrometry, Rapid Communications in Mass Spectrometry, 2003; 17, 538-546, the contents of which are incorporated herein by reference.
The results summarized in FIGS. 2A and 2B as plasma peptide concentration normalized to a 1 mg dose as a function of time relative to the average Tmax, (i.e., the time at which the maximum amount of peptide was detected) indicate that both peptides, i.e., sCT and Dmt-DALDA, were detected in dogs given uncoated or enteric coated capsules. […] Table DI (below) sets forth the values upon which the curves in FIGS. 2A and 2B are based. The results are summarized in the tables as plasma peptide concentration normalized to a 1 mg dose as a function of time. Table III, moreover, provides the standard deviations for the data obtained regarding each of the test dogs, which standard deviations are also indicated in FIGS. 2A and 2B.
Table IV (below) summarizes the pharmacokinetic parameters in dogs of orally administered sCT and Dmt-DALDA when administered in non-enteric coated versus enteric coated capsules. Peptide was not detected from 1 dog in each group due to (a) Dog 3 vomiting the uncoated capsule and (b) delayed gastric emptying in Dog 2 provided with an enteric coated capsule. Cmax and AUC are as defined with regard to Table H above.

[1] = Non-Enteric Capsule, Avg (n = 3)

CC(C)C[C@H](NC(=O)[C@H](CCCCN)NC(=O)CNC(=O)[C@H](CC(C)C)NC(=O)[C@@H](NC(=O)[C@@H]1CSSC[C@H](N)C(=O)N[C@@H](CO)C(=O)N[C@@H](CC(N)=O)C(=O)N[C@@H](CC(C)C)C(=O)N[C@@H](CO)C(=O)N[C@@H]([C@@H](C)O)C(=O)N1)C(C)C)C(=O)N[C@@H](CO)C(=O)N[C@@H](CCC(N)=O)C(=O)N[C@@H](CCC(=O)O)C(=O)N[C@@H](CC(C)C)C(=O)N[C@@H](Cc1c[nH]cn1)C(=O)N[C@@H](CCCCN)C(=O)N[C@@H](CC(C)C)C(=O)N[C@@H](CCC(N)=O)C(=O)N[C@H](C(=O)N[C@@H](Cc1ccc(O)cc1)C(=O)N1CCC[C@H]1C(=O)N[C@@H](CCCNC(=N)N)C(=O)N[C@H](C(=O)N[C@@H](CC(N)=O)C(=O)N[C@H](C(=O)NCC(=O)N[C@@H](CO)C(=O)NCC(=O)N[C@H](C(=O)N1CCC[C@H]1C(N)=O)[C@@H](C)O)[C@@H](C)O)[C@@H](C)O)[C@@H](C)O [sCT, salmon calcitonin]
AUC (Enteric Capsule, Avg (n = 3)): 788317 pg/mL-min
AUC (Enteric Capsule, Dog 1): 1178504 pg/mL-min
AUC (Enteric Capsule, Dog 2 (delayed gastric emptying)): 0 pg/mL-min
AUC (Enteric Capsule, Dog 3): 522432 pg/mL-min
AUC (Enteric Capsule, Dog 4): 664016 pg/mL-min
AUC [1]: 69539 pg/mL-min
AUC (Non-Enteric Capsule, Dog 1): 79620 pg/mL-min
AUC (Non-Enteric Capsule, Dog 2): 103772 pg/mL-min
AUC (Non-Enteric Capsule, Dog 3 (vomited capsule)): 0 pg/mL-min
AUC (Non-Enteric Capsule, Dog 4): 25227 pg/mL-min
Tmax (Enteric Capsule, Avg (n = 3)): 105 min
Cmax (Enteric Capsule, Avg (n = 3)): 17.2 ng/mL
Cmax (Enteric Capsule, Dog 1): 25.1 ng/mL
Tmax (Enteric Capsule, Dog 3): 135 min
Cmax (Enteric Capsule, Dog 3): 13.2 ng/mL
Tmax (Enteric Capsule, Dog 4): 120 min
Cmax (Enteric Capsule, Dog 4): 13.1 ng/mL
Tmax [1]: 30 min
Cmax [1]: 2.26 ng/mL
Tmax (Non-Enteric Capsule, Dog 1): 30 min
Cmax (Non-Enteric Capsule, Dog 1): 2.65 ng/mL
Tmax (Non-Enteric Capsule, Dog 2): 30 min
Cmax (Non-Enteric Capsule, Dog 2): 3.15 ng/mL
Tmax (Non-Enteric Capsule, Dog 4): 30 min
Cmax (Non-Enteric Capsule, Dog 4): 0.971 ng/mL
Cmax and AUC, enteric coated capsules versus non enteric-coated capsules (dogs): significantly enhanced
amount of peptide detected in plasma, enteric coated capsules vs non-coated capsules (dogs): nearly eight times as much
time at which the maximum concentration was seen (dogs given coated capsules): 105 min
time at which the maximum concentration was seen (dogs given uncoated capsules): 30 min
plasma peptide concentration normalized to a 1 mg dose (Dog 1, 0 min): 0 pg/mL
plasma peptide concentration normalized to a 1 mg dose (Dog 1, 15 min): 0 pg/mL
plasma peptide concentration normalized to a 1 mg dose (Dog 1, 30 min): 407 pg/mL
plasma peptide concentration normalized to a 1 mg dose (Dog 1, 45 min): 22650 pg/mL
plasma peptide concentration normalized to a 1 mg dose (Dog 1, 60 min): 25136 pg/mL
plasma peptide concentration normalized to a 1 mg dose (Dog 1, 75 min): 6444 pg/mL
plasma peptide concentration normalized to a 1 mg dose (Dog 1, 90 min): 8167 pg/mL
plasma peptide concentration normalized to a 1 mg dose (Dog 1, 105 min): 4344 pg/mL
plasma peptide concentration normalized to a 1 mg dose (Dog 1, 120 min): 3193 pg/mL
plasma peptide concentration normalized to a 1 mg dose (Dog 1, 135 min): 2710 pg/mL
plasma peptide concentration normalized to a 1 mg dose (Dog 1, 150 min): 1706 pg/mL
plasma peptide concentration normalized to a 1 mg dose (Dog 1, 165 min): 1283 pg/mL
plasma peptide concentration normalized to a 1 mg dose (Dog 1, 180 min): 1301 pg/mL
plasma peptide concentration normalized to a 1 mg dose (Dog 1, 195 min): 459 pg/mL
plasma peptide concentration normalized to a 1 mg dose (Dog 1, 210 min): 347 pg/mL
plasma peptide concentration normalized to a 1 mg dose (Dog 2 (delayed gastric emptying), 0 min): 0 pg/mL
plasma peptide concentration normalized to a 1 mg dose (Dog 2 (delayed gastric emptying), 15 min): 0 pg/mL
plasma peptide concentration normalized to a 1 mg dose (Dog 2 (delayed gastric emptying), 30 min): 0 pg/mL
plasma peptide concentration normalized to a 1 mg dose (Dog 2 (delayed gastric emptying), 45 min): 0 pg/mL
plasma peptide concentration normalized to a 1 mg dose (Dog 2 (delayed gastric emptying), 60 min): 0 pg/mL
plasma peptide concentration normalized to a 1 mg dose (Dog 2 (delayed gastric emptying), 75 min): 0 pg/mL
plasma peptide concentration normalized to a 1 mg dose (Dog 2 (delayed gastric emptying), 90 min): 0 pg/mL
plasma peptide concentration normalized to a 1 mg dose (Dog 2 (delayed gastric emptying), 105 min): 0 pg/mL
plasma peptide concentration normalized to a 1 mg dose (Dog 2 (delayed gastric emptying), 120 min): 0 pg/mL
plasma peptide concentration normalized to a 1 mg dose (Dog 2 (delayed gastric emptying), 135 min): 0 pg/mL
plasma peptide concentration normalized to a 1 mg dose (Dog 2 (delayed gastric emptying), 150 min): 0 pg/mL
plasma peptide concentration normalized to a 1 mg dose (Dog 2 (delayed gastric emptying), 165 min): 0 pg/mL
plasma peptide concentration normalized to a 1 mg dose (Dog 2 (delayed gastric emptying), 180 min): 0 pg/mL
plasma peptide concentration normalized to a 1 mg dose (Dog 2 (delayed gastric emptying), 195 min): 0 pg/mL
plasma peptide concentration normalized to a 1 mg dose (Dog 2 (delayed gastric emptying), 210 min): 0 pg/mL
plasma peptide concentration normalized to a 1 mg dose (Dog 3, 0 min): 0 pg/mL
plasma peptide concentration normalized to a 1 mg dose (Dog 3, 15 min): 0 pg/mL
plasma peptide concentration normalized to a 1 mg dose (Dog 3, 30 min): 0 pg/mL
plasma peptide concentration normalized to a 1 mg dose (Dog 3, 45 min): 0 pg/mL
plasma peptide concentration normalized to a 1 mg dose (Dog 3, 60 min): 0 pg/mL

Reference: patent publication US8835377B2, “Oral delivery of peptide pharmaceutical compositions” (UGP Therapeutics, Inc., priority 2004, dated 2014)
